Test results from publication PMC11124387, “A Reliable Multifaceted Solution against Foodborne Viral Infections: The Case of RiLK1 Decapeptide” (Molecules, 2024).
Several values for one entry are separate records, joined by “and”; a condition that tells them apart may be missing. Equal values may be shown once. Read-outs that look alike come from different tables or passages of the source. Where a SMILES comes first, the peptide text is derived from it.

How the values were obtained:
[1] = tested on: Murine norovirus strain 1 (MNV-1); format: cell-based; details: for Viral Titre after Treatment: titration on RAW 264.7 cells; for Viral Titre after Treatment / LRV (log reduction value): mean ± SD, triplicate; for virucidal activity toward MNV-1 (in words): 40 and 80 µM, 4 °C and RT
Text: (§1) Murine norovirus strain 1 (MNV-1) was used as a surrogate for human norovirus (NoV). The virus was replicated in RAW 264.7 cells (murine macrophage cell line) cultured in Dulbecco’s modified Eagle’s medium (DMEM) supplemented with 1% glutamine, 1% non-essential amino acids, and 2% fetal bovine serum (FBS). Hepatitis A virus (HAV) strain HM-175 was replicated in Frp3 cells (non-human primate cell line derived from fetal kidney) cultured in minimum essential medium (MEM) with Earle’s salts supplemented with 1% glutamine, 2% non-essential amino acids, and 2% FBS. Both viruses were incubated in 5% CO2 at 37 °C. All cell culture media were provided by EuroClone (Milan, Italy). The viral suspensions were prepared by freeze and thaw lysis (1 cycle for MNV-1 and 3 cycles for HAV) of infected monolayers, clarified using low-speed centrifugation (800× g) to remove residual cell debris, then divided in aliquots, and stored at −80 °C until use.
(§2) Solutions 40 µM and 80 µM of each peptide of the panel (RiLK1, RiLK3, RiLK30, 1018-K6, MTP1, and AVP2) were chosen for the virucidal tests. HAV and MNV-1 were assayed at a concentration of 4.7 ± 0.2 log TCID50/mL and 4.5 ± 0.2 log TCID50/mL, respectively. The suspensions containing the peptides and viruses were incubated for 1 h at room temperature (RT,20 ± 2 °C) and 4 °C. These temperatures were chosen to simulate the use of sanitizing solutions in food production/processing environments. Residual viral infectivity was evaluated by titration (TCID50/mL) on Frp3 cells for HAV and on RAW 264.7 cells for MNV-1. Untreated HAV and MNV-1 suspensions and 40 µM and 80 µM AMP solutions, incubated at the same conditions, were used as controls. Each treatment condition was assayed in triplicate. For titration, 100 µL of serial tenfold dilutions of each sample were assayed in 24-well tissue culture plates containing 24–48 h cell monolayers and incubated for 1 h in 5% CO2 at 37 °C. After that, the wells were washed twice with 200 µL of PBS, and 500 µL of DMEM/MEM, supplemented with 2% of FBS, were was added to each well; MNV-1 and HAV incubations were carried for up to 6 days and 14 days, respectively, in 5% CO2 at 37 °C with daily visual inspection to determine the cytopathic effect. The virucidal efficacy of AMPs was estimated by comparing the titers of treated and untreated viral suspensions.
(§3) For each treatment, the average and standard deviation of the triplicate analyses were calculated. The virucidal effects of AMPs was assessed by calculating the log reduction value (LRV), i.e., the difference between the infectious titer (log-transformed) of untreated versus treated samples. The statistical significance of differences between treated and untreated samples was determined through one-way analysis of variance (ANOVA) with Bonferroni post hoc comparisons, with a significance level of p < 0.05 (GraphPad Prism v9.5.0, software San Diego, CA, USA).

[2] = tested on: Hepatitis A virus (HAV) strain HM-175; assay: Virucidal effect of peptides on HAV (residual infectivity by TCID50 titration on Frp3 cells); format: cell-based; details: for Viral Titre after Treatment: titration on Frp3 cells; for Viral Titre after Treatment / LRV (log reduction value): mean ± SD, triplicate
Text: as §1, §2, §3

[3] = tested on: Hepatitis A virus (HAV) strain HM-175; details: cited from earlier work; for LRV (log reduction value) / Viral Titre after Treatment: RT (20 ± 2 °C), mean ± SD, ref [46] (table footnote; text b35 cites [45])
Text: Table 2 In vitro effect of peptides on HAV. | column: Viral Titre after Treatment (logTCID50/mL ± SD) / RT; LRV (logTCID50/mL ± SD) / RT || In a previous work, the antiviral effects of RiLK1 and RiLK3 were already investigated against hepatitis A virus (HAV) following treatment at room temperature, and the obtained results are reported in Table 2. Briefly, RiLK1 was able to reduce HAV infectivity by more than 1 log in comparison with the untreated virus, displaying a log reduction value (LRV) of 1.4 at 80 μM and 1.1 at 40 μM concentration. […] Therefore, based on these preliminary results, further insights into the virucidal activity ...

[4] = tested on: Murine norovirus strain 1 (MNV-1); assay: Virus pre-treatment assay, MNV-1; format: cell-based; details: virus pre-treatment: peptide 80 µM with virus 1 h at RT, mean ± SD; for Viral Titre: then on RAW 264.7 cells 1 h 37 °C
Method: Four sets of experiments were performed to suppose the effect of RiLK1 and RiLK3 on HAV and MNV-1 [29]. To this aim, 80 µM solutions of the two peptides and HAV and MNV-1 suspensions at a final concentration of 4.7 ± 0.2 log TCID50/mL and 4.5 ± 0.2 log TCID50/mL, respectively, were used in the following experiments: • i) A virus pre-treatment assay to assess the direct interaction between the virus and peptide: the incubation of the peptide with viral suspension for 1 h at room temperature was carried out, followed by its incubation on cells for 1 h at 37 °C. Then, cell monolayers were washed twice with PBS and incubated with 500 µL DMEM/MEM supplemented with 2% of FBS to determine the TCID50/mL. • ii) A cell pre-treatment assay to assess the interaction between the peptide and cells before the viral infection: cell monolayers were preincubated with 100 µL of peptide solution for 1 h at 37 °C, followed by the removal of the peptide, addition to cells of viral suspensions for 1 h at 37 °C, washing step, and culture with 2% FBS DMEM/MEM. • iii) An attachment assay to assess the possible action of the peptide at the stage of virus attachment to cells: cell monolayers were incubated with 100 µL of a suspension containing both the peptide and virus and were incubated for 1 h at 4 °C. […]
as §3

[5] = MNV-1 4.5 ± 0.2 log TCID50/mL + peptide 80 µM, 1 h at 4 °C
[6] = MNV-1 + peptide 40 µM, 1 h at 4 °C
[7] = MNV-1 + peptide 40 µM, 1 h at RT (20 ± 2 °C)
[8] = MNV-1 + peptide 80 µM, 1 h at 4 °C
[9] = MNV-1 + peptide 80 µM, 1 h at RT (20 ± 2 °C)
[10] = maximum reduction, corresponding to the highest LRV
[11] = HAV 4.7 ± 0.2 log TCID50/mL + peptide 80 µM, 1 h at 4 °C
[12] = HAV + peptide 40 µM, 1 h at 4 °C
[13] = HAV + peptide 40 µM, 1 h at 4 °C, untreated minus treated titre
[14] = HAV + peptide 80 µM, 1 h at 4 °C, untreated minus treated titre
[15] = HAV + peptide 40 µM, 1 h at RT (20 ± 2 °C)
[16] = HAV + peptide 80 µM, 1 h at RT (20 ± 2 °C)

| Compound | Viral Titre after Treatment [1, 5] | LRV (log reduction value) [1, 6] | Viral Titre after Treatment [1, 6] | LRV (log reduction value) [1, 7] | Viral Titre after Treatment [1, 7] | LRV (log reduction value) [1, 8] | LRV (log reduction value) [1, 9] | Viral Titre after Treatment [1, 9] | Viral Titre after Treatment [2, 11] | Viral Titre after Treatment [2, 12] | LRV (log reduction value) [2, 13] | LRV (log reduction value) [2, 14] | LRV (log reduction value) ([3]; HAV + peptide 40 µM) | Viral Titre after Treatment ([3]; HAV + peptide 40 µM) | LRV (log reduction value) ([3]; HAV + peptide 80 µM) | Viral Titre after Treatment ([3]; HAV + peptide 80 µM) | Viral Titre [4] | virucidal activity toward MNV-1 (in words) [1] | other results |
| --- | --- | --- | --- | --- | --- | --- | --- | --- | --- | --- | --- | --- | --- | --- | --- | --- | --- | --- | --- |
| CC[C@H](C)[C@H](NC(=O)[C@H](CCCNC(=N)N)NC(=O)[C@@H](NC(=O)[C@H](Cc1c[nH]c2ccccc12)NC(=O)[C@H](CCCCN)NC(=O)[C@H](CC(C)C)NC(=O)[C@@H](N)CCCNC(=N)N)C(C)C)C(=O)N[C@@H](Cc1c[nH]c2ccccc12)C(=O)N[C@@H](CCCNC(=N)N)C(=O)N[C@@H](CCCNC(=N)N)C(N)=O [RiLK1] (H-RLKWVRIWRR-NH2; N-terminus assumed) | 4.3 ± 0.2 logTCID50/mL | 0.2 ± 0.4 logTCID50/mL | 4.3 ± 0.2 logTCID50/mL | 1.0 ± 0.4 logTCID50/mL | 3.5 ± 0.2 logTCID50/mL | 0.2 ± 0.4 logTCID50/mL | 1.2 ± 0.4 logTCID50/mL | 3.3 ± 0.2 logTCID50/mL | 3.6 ± 0.1 logTCID50/mL | 3.9 ± 0.2 logTCID50/mL | 0.8 ± 0.4 logTCID50/mL | 1.1 ± 0.3 logTCID50/mL | 1.1 logTCID50/mL and 1.1 ± 0.3 *^,a logTCID50/mL | 3.6 ± 0.1 *^,a logTCID50/mL | 1.4 logTCID50/mL and 1.4 ± 0.4 *^,a logTCID50/mL | 3.3 ± 0.2 *^,a logTCID50/mL | 3.3 ± 0.2 logTCID50/mL | – | reduction of MNV-1 infectivity [1, 10]: up to 94.1%; decrease of HAV infectious titer [2, 10]: up to 96.7%; reduction of HAV infectivity in comparison with the untreated virus ([3]; room temperature, ref [45]): more than 1 log |
| KLRWVKIWKK-NH2 [RiLK30, newly designed RiLK1 derivative, Arg residues exchanged with Lys and Lys3 with Arg] | 3.9 ± 0.2 logTCID50/mL | 0.2 ± 0.5 logTCID50/mL | 4.3 ± 0.3 logTCID50/mL | 0 ± 0.4 logTCID50/mL | 4.5 ± 0.2 logTCID50/mL | 0.6 ± 0.4 logTCID50/mL | 0 ± 0.3 logTCID50/mL | 4.5 ± 0.1 logTCID50/mL | 4.3 ± 0.2 logTCID50/mL | 4.3 ± 0.2 logTCID50/mL | 0.4 ± 0.4 logTCID50/mL | 0.4 ± 0.4 logTCID50/mL | – | – | – | – | – | no virucidal activity | virucidal activity toward HAV (in words) ([2]; 40 and 80 µM, 4 °C and RT): no virucidal activity; LRV (log reduction value) [2, 15]: 0.6 ± 0.4 logTCID50/mL; Viral Titre after Treatment [2, 15]: 4.1 ± 0.2 logTCID50/mL; LRV (log reduction value) [2, 16]: 0.6 ± 0.4 logTCID50/mL; Viral Titre after Treatment [2, 16]: 4.1 ± 0.2 logTCID50/mL |
| RLRWVRIWRR-NH2 [RiLK3, RiLK1 analog differing by one amino acid (Lys replaced with Arg), C-terminally amidated] | 4.5 ± 0.2 logTCID50/mL | 0 ± 0.3 logTCID50/mL | 4.5 ± 0.1 logTCID50/mL | 0 ± 0.4 logTCID50/mL | 4.5 ± 0.2 logTCID50/mL | 0 ± 0.4 logTCID50/mL | 0 ± 0.3 logTCID50/mL | 4.5 ± 0.1 logTCID50/mL | 4.6 ± 0.1 logTCID50/mL | 4.6 ± 0.3 logTCID50/mL | 0.1 ± 0.2 logTCID50/mL | 0.1 ± 0.3 logTCID50/mL | 0.3 ± 0.3 ^a logTCID50/mL | 4.4 ± 0.1 ^a logTCID50/mL | 0.3 ± 0.3 ^a logTCID50/mL | 4.4 ± 0.1 ^a logTCID50/mL | 4.5 ± 0.1 logTCID50/mL | not effective | inhibition of HAV infection (in words) ([3]; 40 and 80 µM, room temperature, ref [45]): unable to inhibit HAV infection; LRV ([4]; then on cells 1 h 37 °C): 0 ± 0.3 logTCID50/mL |
